Data published in patent US20020054927A1, “Process for the extraction of an active principle from leaves of Olea Europaea to promote the synthesis of stress proteins, obtained active principle” (priority 2000, published 2002).

Tested on: HSP 70
Test: Production of stress protein HSP 70 (RNAm by RT-PCR, band intensity vs β-actine) in cutaneous cell cultures
Format: cell-based, human
Details: tested at 1.5 g/l
Procedure: 1st test with thermal treatment:
At J0, cutaneous cells, fibroblasts and/or keratinocytes are seeded.
At J4, 3% of active principle was added and after an incubation of 30 minutes thermal treatment is carried out for 1 hour at 39° C.
The positive specimen is treated for 1 hour at 44° C.
The total RNA is extracted. The RNA is reverse-transcripted and the complementary DNA is analyzed by using complementary oligonucleotides of a sequence coding the genes and proteins studied.
The RNAm of β-actine is analyzed for each experimental condition.
By image analysis, using for example the system sold under the name BIO-PROFIL, the band intensities are determined.
2nd test without thermal treatment:
At J3, 3% of active principle is added and left to incubate for 24 hours at 37° C.
At J4, at the end of this incubation, the cells are recovered.
The total RNA is extracted. The RNA is reverse-transcripted and the complementary DNA is analyzed by using complementary oligonucleotides of a sequence coding the genes and proteins used. The RNAm of p-actine is analyzed for each experimental condition.
Similarly to the above, by image analysis, the intensities of the bands are determined. […]
The results of the thermal treatments of the standard are indicated in the table in FIG. 1, taking as 100% the quantity of RNAm of HSP 70 after incubation at 37° C. of a standard specimen

| SMILES | effect on the synthesis of HSP 70 on fibroblasts, result in words |
| --- | --- |
| OCCc1ccc(O)c(O)c1 [Dihydroxytyrosol] | very active |
| C/C=C1/[C@H](O[C@@H]2O[C@H](CO)[C@@H](O)[C@H](O)[C@H]2O)OC=C(C(=O)OC)[C@H]1CC(=O)OCCc1ccc(O)c(O)c1 [Oleuropeine] | very active |
